Experimental data: paper PMC7434922, “Key role of quinone in the mechanism of respiratory complex I” (Nature Communications, 2020)

B2: Complex I subunit Nqo8 (Thermus thermophilus) (natural protein, T. thermophilus HB8, UniProt Q60019 1-365, looked up)
chain: MTWSYPVDPYWMVALKALLVVVGLLTAFAFMTLIERRLLARFQVRMGPNRVGPFGLLQPLADAIKSIFKEDIVVAQADRFLFVLAPLISVVFALLAFGLIPFGPPGSFFGYQPWVINLDLGILYLFAVSELAVYGIFLSGWASGSKYSLLGSLRSSASLISYELGLGLALLAPVLLVGSLNLNDIVNWQKEHGWLFLYAFPAFLVYLIASMAEAARTPFDLPEAEQELVGGYHTEYSSIKWALFQMAEYIHFITASALIPTLFLGGWTMPVLEVPYLWMFLKIAFFLFFFIWIRATWFRLRYDQLLRFGWGFLFPLALLWFLVTALVVALDLPRTYLLYLSALSFLVLLGAVLYTPKPARKGGGA
notes: Nqo8, core subunit of the membrane domain of respiratory complex I, Thermus thermophilus HB8; Endogenous subunit inside the crystallised intact complex; source: purified from T. thermophilus HB8 cells as part of intact complex I (anion exchange, cation exchange, gel filtration)

Key:
[1] = molecular target: T1, T. thermophilus complex I (quinone site, Q-site) (Thermus thermophilus, UniProt Q56218+Q56220+Q60019); experiment: NADH:DQ oxidoreductase activity, absorbance at […] nm; type: biochemical
T1 construct: gene nqo4; native intact complex purified from T. thermophilus HB8 membranes in TDM; 16 subunits, 550 kDa; for crystals recombinant His-tagged Nqo16 (E. coli) was added; activity preparation has sub-stoichiometric Nqo16; with NADH-quinone oxidoreductase subunit 1; NADH-quinone oxidoreductase subunit 2; NADH-quinone oxidoreductase subunit 3; NADH-quinone oxidoreductase subunit 5; NADH-quinone oxidoreductase subunit 7; NADH-quinone oxidoreductase subunit 9; NADH-quinone oxidoreductase subunit 10; NADH-quinone oxidoreductase subunit 11; NADH-quinone oxidoreductase subunit 12; NADH-quinone oxidoreductase subunit 13; NADH-quinone oxidoreductase subunit 14; NADH-quinone oxidoreductase subunit 15; NADH-quinone oxidoreductase subunit 16

[2] = molecular target: T1, T. thermophilus complex I (quinone site, Q-site); experiment: biochemical; design: NADH:decylubiquinone oxidoreductase activity of purified complex I, NADH absorbance at 340 nm, 50 °C
Experimental: Complex I activity was measured at 50 °C with DQ as an electron acceptor. To a 2 mL quartz cuvette containing DQ assay buffer (50 mM Bis–Tris pH 6.0, 25 mM NaCl, 2 mM CaCl2), 0.25 mg mL^−1 asolectin (Fluka), 8 μg mL^−1 complex I protein, and 100 μM DQ were added. The sample was incubated for 5 min whilst stirred at 400 rpm, to allow for the equilibration of the protein/DQ/lipid/detergent mixture. The reaction was started by adding 100 μM NADH and the change in absorbance was followed at 340 nm, over 30 s under constant stirring. Specific enzyme activity was calculated in μmol NADH oxidized mg^−[…]. When required, inhibitors of complex I were added after DQ, prior to the 5-min incubation period. Lipids were prepared by mixing asolectin in a small volume of chloroform (1 mL) before evaporating the solvent under a stream of nitrogen gas, and were resuspended in 1% CHAPS to a final concentration of 5 mg mL^−1 before use. […] IC50’s for a range of common complex I inhibitors are listed in the Supplementary Table 3. […] Crystal structures of complex I with bound DQ and Q-like inhibitors also show a rotation of PA, like that observed in MJ–MN transition. However, its degree of torsion depends strongly on the Q-ligand, with DQ introducing the largest conformational change (Supplementary Fig. 7d, e). All Q-like ligands studied here display a similar pattern of interactions at the deepest end of the Q-cavity, with the headgroup about 12 Å away from cluster N2 (Fig. 4). A shared feature between all ligands bound in the Q-site is a hydrogen bond interaction of a ketone group from the quinone ring with the conserved and essential for complex I activity Y87_4[16],[36]. Other key residues, such as H38_4 from the key β1–β2 loop (33-QHPSTHG-39) in Nqo4 and M51_6, also contribute to the stabilization of the quinone ring, while secondary residues are involved specifically in the binding of each ligand (Fig. 4 and Supplementary Fig. 2). […] In the case of [compound left out], H38_4 stabilizes its outer ether group, while M51_6 interacts with the oxygen in the furanose ring (Fig. 4c). The distal nitrobenzene moiety is surrounded by both charged and nonpolar residues that, despite the lack of direct interaction, might form a suitable pocket for its accommodation.

[3] = molecular target: B2; experiment: crystal structure; intact complex I purified from T. thermophilus mixed with purified recombinant Nqo16 (1:0.2 CXI:Nqo16), sitting drop at 23 °C, 100 mM Bis-Tris pH 6.0, 19-25% PEG 4000, 100 mM KCl, 100 mM glutaric acid, detergents; native crystals and crystals soaked or co-crystallised with NADH, decylubiquinone, piericidin A, aureothin or pyridaben; conditions: both partners purified
[4] = molecular target: T2, Complex I subunit Nqo4 (Thermus thermophilus) (T. thermophilus HB8, UniProt Q56220 1-409); experiment: as above; conditions: both partners purified
T2 construct: Nqo4, core subunit of the peripheral arm of respiratory complex I, Thermus thermophilus HB8; Endogenous subunit inside the crystallised intact complex; source: purified from T. thermophilus HB8 cells as part of intact complex I (anion exchange, cation exchange, gel filtration)
T2 sequence (looked up): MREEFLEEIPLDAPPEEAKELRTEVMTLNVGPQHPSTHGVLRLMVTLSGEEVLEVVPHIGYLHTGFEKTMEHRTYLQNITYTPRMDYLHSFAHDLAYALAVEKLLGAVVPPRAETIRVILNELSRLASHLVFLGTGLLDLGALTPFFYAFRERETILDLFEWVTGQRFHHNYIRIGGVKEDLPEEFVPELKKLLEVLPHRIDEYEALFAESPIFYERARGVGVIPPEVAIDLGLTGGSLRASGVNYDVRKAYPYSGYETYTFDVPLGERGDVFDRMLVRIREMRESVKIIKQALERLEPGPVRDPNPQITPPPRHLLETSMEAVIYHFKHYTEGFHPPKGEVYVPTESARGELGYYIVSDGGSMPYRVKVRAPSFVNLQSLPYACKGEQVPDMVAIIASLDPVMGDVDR

[5] = molecular target: T3, Intact complex I (NADH:ubiquinone oxidoreductase) purified from Thermus thermophilus, the form without Nqo16 (T. thermophilus HB8, UniProt Q56222 1-438; Q56221 1-181; Q56223 1-783; Q56220 1-409; Q56219 1-207; Q56218 …); experiment: as above; conditions: both partners purified
T3 construct: Nqo1, complex I subunit, Thermus thermophilus HB8; Nqo2, complex I subunit, Thermus thermophilus HB8; Nqo3, complex I subunit, Thermus thermophilus HB8; Nqo4, complex I subunit, Thermus thermophilus HB8; Nqo5, complex I subunit, Thermus thermophilus HB8; Nqo6, complex I subunit, Thermus thermophilus HB8; Nqo7, complex I subunit, Thermus thermophilus HB8; Nqo8, complex I subunit, Thermus …

T1 sequence (Q56222 whole entry partner, one chain of several): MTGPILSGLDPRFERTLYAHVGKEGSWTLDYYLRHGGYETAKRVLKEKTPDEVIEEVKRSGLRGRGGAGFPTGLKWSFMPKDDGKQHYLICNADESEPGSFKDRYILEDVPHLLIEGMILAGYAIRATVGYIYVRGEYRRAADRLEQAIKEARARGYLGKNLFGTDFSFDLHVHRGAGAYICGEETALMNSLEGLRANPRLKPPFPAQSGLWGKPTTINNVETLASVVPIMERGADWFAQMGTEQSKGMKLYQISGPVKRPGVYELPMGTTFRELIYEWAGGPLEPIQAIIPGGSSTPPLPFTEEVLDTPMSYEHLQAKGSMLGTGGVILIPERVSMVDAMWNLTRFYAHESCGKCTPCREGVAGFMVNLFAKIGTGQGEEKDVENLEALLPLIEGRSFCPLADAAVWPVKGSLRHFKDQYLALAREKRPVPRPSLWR

COc1oc([C@H]2C/C(=C/C(C)=C/c3ccc([N+](=O)[O-])cc3)CO2)c(C)c(=O)c1C [AUT, aureothin] was tested, and the IC50 ([1]; read-out: IC50) was 10.3 nM.

In the case of COc1cc(CNC(=O)CCCC/C=C/C(C)C)ccc1O [Capsaicin], the IC50 ([2]; read-out: IC50 (µM in cell)) is reported as 197 µM.

Cc1nn(C)c(Oc2ccccc2)c1/C=N/OCc1ccc(C(=O)OC(C)(C)C)cc1 [Fenpyroximate] was tested, and the IC50 ([2]; read-out: IC50 (nM in cell)) was 0.63 µM.

Work on C/C=C(\C)[C@H](O)[C@H](C)/C=C(C)/C=C/C/C(C)=C/Cc1nc(OC)c(OC)c(O)c1C [PIE, piericidin A] yielded an IC50 [1] of 31 nM.

In the case of CC(C)(C)c1ccc(CSc2cnn(C(C)(C)C)c(=O)c2Cl)cc1 [PYR, pyridaben], the IC50 ([1]; read-out: IC50) is reported as 15.6 nM.

Work on CCCCCCCCCC[C@H](O)[C@H]1CC[C@@H]([C@@H]2CC[C@H]([C@H](O)CCCCCCCCCC[C@@H](O)CC3=C[C@H](C)OC3=O)O2)O1 [Rolliniastatin-1] yielded an IC50 ([2]; read-out: IC50 (nM in cell)) of 0.93 µM.

C/C=C(C)/C=C/C=C/[C@H](OC)[C@@H](C)[C@@H](OC)[C@@H](C)CCc1oc2c(O)c(OC)cc(OC)c2c(=O)c1C [Stigmatellin] was tested, and the IC50 ([2]; read-out: IC50 (µM in cell)) was 60 µM.

C=C(C)[C@H]1Cc2c(ccc3c2O[C@@H]2COc4cc(OC)c(OC)cc4[C@@H]2C3=O)O1 [rotenone] was tested, and the IC50 ([1]; read-out: IC50) was 190 nM.

B1: Complex I subunit Nqo6 (Thermus thermophilus) (natural protein, T. thermophilus HB8, UniProt Q56218 1-181, looked up)
chain: MALKDLFERDVQELEREGILFTTLEKLVAWGRSNSLWPATFGLACCAIEMMASTDARNDLARFGSEVFRASPRQADVMIVAGRLSKKMAPVMRRVWEQMPDPKWVISMGACASSGGMFNNYAIVQNVDSVVPVDVYVPGCPPRPEALIYAVMQLQKKVRGQAYNERGERLPPVAAWKRTRG
notes: Nqo6, core subunit of the peripheral arm of respiratory complex I, Thermus thermophilus HB8; Endogenous subunit inside the crystallised intact complex; source: purified from T. thermophilus HB8 cells as part of intact complex I (anion exchange, cation exchange, gel filtration)
B1: binds [3].

B2: binds [4].

B3: Heterologously expressed subunit Nqo16 (ttha1528 gene), His-tagged (natural protein, T. thermophilus HB8, UniProt Q5SI52 1-131, looked up)
chain: MVRVGMRAAPRVSLEALKAALGGLKLSEAKVYLITDWQDKRDQARYALLLHTGKKDLLVPDAFGPAFPGGEEALSELVGLLLAQGARRFYEAVVSPGEMTALLDLPPEELLKRVMAIANPTDPGIYLKRAA
notes: reverse primer with the stop codon) and cloned into pet16b; Full length is read from the printed primers (start codon in the NdeI site to the stop codon); also called His-tagged Nqo16; source: E. coli BL21(DE3), purified (heat treatment 70 °C, Ni-NTA)
B3: binds [5].

B4: Complex I subunit Nqo10 (Thermus thermophilus) (natural protein, T. thermophilus HB8, UniProt Q56225 1-176, looked up)
chain: MSLLEGLALFLLLLSGVLVVTLRNAIHAALALILNFLVLAGVYVALDARFLGFIQVIVYAGAIVVLFLFVIMLLFAAQGEIGFDPLVRSRPLAALLALGVAGILAAGLWGLDLAFTQDLKGGLPQALGPLLYGDWLFVLLAVGFLLMAATVVAVALVEPGKASRAKEAEKREEVAR
notes: Nqo10, core subunit of the membrane domain of respiratory complex I, Thermus thermophilus HB8; Endogenous subunit inside the crystallised intact complex; source: purified from T. thermophilus HB8 cells as part of intact complex I (anion exchange, cation exchange, gel filtration)
B4: binds [3].
